Results from PMC4578436, “Synthesis and evaluation of the biostability and cell compatibility of novel conjugates of nucleobase, peptidic epitope, and saccharide” (Beilstein Journal of Organic Chemistry, 2015).
Where a SMILES comes first, the peptide text is derived from it. The star is where a group is joined. Adenin9ylacetyl = Nc1ncnc2c1ncn2CC(=O)*

Tests used:
proteinase K [1] = target: T1, proteinase K (Parengyodontium album, UniProt P06873); experiment: biostability: incubation with proteinase K; type: in vitro ADME; settings: 24 h, 37 °C
T1 construct: purchased Sigma
Procedure: The existence of proteolytic enzymes in organism limits the applications of peptide-based biomaterials in vivo. […] When we changed the peptide sequence to EPTV, only 15% of 3 left.
Figure 3 Compounds remained after incubating with proteinase K (3.2 U/mL) for 24 h at 37 °C. (A) Each conjugate 1–8 is at the concentration of 0.2 mg/mL in HEPES buffer (pH 7.4). (B) Mixture of 1 + 8, 5 + 8, or 7 + 8 is in PBS buffer ([1] = [5] = [8] = 8.3 mM, pH 6.2). TEXT PRINTED IN THE PICTURE: (A) 4: Comp. remained %: Un-detectable | (A) 8: Comp. remained %: Un-detectable | (B) 8: Comp. remained %: Un-detectable (Mixtures: 7+8)
Starting materials and reagents were purchased from GL Biochem (Shanghai) Ltd. and Fisher Scientific without further purification unless otherwise noted. Proteinase K was purchased from Sigma (>800 unit/mL). The HeLa cell line (CCL-2) and the PC12 (CRL-1721.1) cell line were purchased from the American Type Culture Collection. All of the media were purchased from Invitrogen.

proteinase K [2] = target: T1, proteinase K; settings: peptide sequence alone; cited from earlier work
Excerpt: This article reports the synthesis of a new class of conjugates containing a nucleobase, a peptidic epitope, and a saccharide and the evalution of their gelation, biostability, and cell compatibility. […] All the conjugates themselves (1–8) display excellent solubility in water without forming hydrogels. However, a mixture of 5 and 8 self-assembles to form nanofibers and results in a supramolecular hydrogel. The pr ...

T1 sequence (P06873 106-384): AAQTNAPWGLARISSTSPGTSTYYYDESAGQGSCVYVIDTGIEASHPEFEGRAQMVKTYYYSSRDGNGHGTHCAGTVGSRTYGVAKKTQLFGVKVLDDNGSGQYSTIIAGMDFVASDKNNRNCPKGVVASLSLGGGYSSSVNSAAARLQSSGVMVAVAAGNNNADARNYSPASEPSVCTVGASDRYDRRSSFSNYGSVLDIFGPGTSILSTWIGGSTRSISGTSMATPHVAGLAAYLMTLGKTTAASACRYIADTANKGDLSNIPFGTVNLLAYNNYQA

Molecule	8 remained after incubating the mixture 1 + 8 with proteinase K (proteinase K [1]; mixture 1 + 8, each 8.3 mM in PBS buffer pH 6.2, proteinase K 3.2 U/mL)	8 remained after incubating the mixture 5 + 8 (hydrogel) with proteinase K (proteinase K [1]; mixture 5 + 8, each 8.3 mM in PBS buffer pH 6.2, proteinase K 3.2 U/mL)	8 remained after incubating the mixture 7 + 8 with proteinase K (proteinase K [1]; mixture 7 + 8 in PBS buffer pH 6.2, same condition as 5 + 8, proteinase K 3.2 U/mL)	proteolytic stability of the peptidic epitope itself (proteinase K [2])
CC[C@H](C)[C@H](NC(=O)[C@H](CC(N)=O)NC(=O)[C@H](Cc1ccccc1)NC(=O)CNC(=O)[C@H](CC(C)C)NC(=O)Cn1cnc2c(N)ncnc21)C(=O)O [compound 8] (Adenin9ylacetyl-LGFNI-OH)	about 3%	about 50%	Un-detectable	–
LGFNI	–	–	–	susceptible to proteolysis
TTPV	–	–	–	proteolytic resistant
